US8367632B2, “Methods for reverting methylation by targeting methyltransferases” (Ohio State University Research Foundation, priority 2007, dated 2013)

Experiments:
Assay type in all cases: cell-based, human
DNMT3A 3′UTR = assay: Luciferase reporter assay for targeting DNMT 3′UTRs (DNMT3A); settings: A549 cells, 100 nM precursor miR, 24 h after transfection, with respect to the scrambled oligonucleotide
Source text: (§1) To validate these miRNA-target interactions in vivo, the DNMT3A and DNTM3B complementary sites were cloned into the 3′UTR of the firefly luciferase gene and co-transfected with miR-29a, mi-R29b or miR-29c in […] (NSCLC) cells.
(§2) Luciferase reporter assay for targeting DNMT 3′UTRs. For luciferase reporter experiments a DNMT3A 3′UTR segment of 979 bp and a DNMT3B 3′UTR segment of 978 bp were amplified by PCR from human genomic DNA and inserted into the pGL3-control vector with SV40 promoter (Promega), using the XbaI site immediately […] from the stop codon of luciferase. The following sets of primers were used to generate specific fragments:
The amplified 3′UTR of DNMT3A contains an XbaI restriction site in position 583, so we cloned separately the upstream 3′UTR (DNMT3A 3′-UTRup=583 bp) and the downstream fragment (DNMT3A 3′-UTRdown=396 bp) into the pGL3 vectors. […]
A549 cells were co-transfected in 12-well plates by using Lipofectamine 2000 reagent (Invitrogen), according to the manufacturer's protocol, with 0.4 μg of the firefly luciferase report vector and 0.08 μg of the control vector containing Renilla luciferase pRL-TK vector (Promega). […] Firefly and Renilla luciferase activities were measured consecutively by using dual-luciferase assays (Promega), 24 h after the transfection. […]

DNMT3B 3′UTR = assay: Luciferase reporter assay for targeting DNMT 3′UTRs (DNMT3B); settings: A549 cells, 100 nM precursor miR, 24 h after transfection, with respect to the scrambled oligonucleotide
Source text: as §1
as §2, with “fragments: […]” for “fragments:”
A549 cells were co-transfected in 12-well plates by using Lipofectamine 2000 reagent (Invitrogen), according to the manufacturer's protocol, with 0.4 μg of the firefly luciferase report vector and 0.08 μg of the control vector containing Renilla luciferase pRL-TK vector (Promega). For each well, 100 nM (final) of precursor miR-29a, 29b-1, 29c or scrambled miR (Ambion) was used. Firefly and Renilla luciferase activities were measured consecutively by using dual-luciferase assays (Promega), 24 h after the transfection. The experiments were performed in triplicate.

FHIT mRNA = FHIT mRNA level by qRT-PCR; settings: A549 cells, 48 h after transfection
Experimental: (§3) To characterize effects of the methylation changes on gene expression, the mRNA expression levels of two TSGs, FHIT and WWOX, which are frequently silenced by promoter methylation in lung cancer^14 were analyzed.
(§4) Quantitative RT-PCR. Quantitative RT-PCR (qRT-PCR) analysis for miRNA s was performed in triplicate with the TaqMan MicroRNA assays kit (Applied Biosystems, Foster City, Calif.), according to the manufacturer's instructions. 18S RNA was used for normalization; qRT-PCR analyses for other genes of interest were performed as previously described. RNA was reverse transcribed to cDNA with gene-specific primers and IQ SYBR Green Supermix (Biorad, Hercules, Calif.). GAPDH served as normalization control. For the silencing of miR-29s, A549 and H1299 cells were transfected in 6-well plates by using Lipofectamine 2000 reagent (Invitrogen), according to the manufacturer's protocol, with 100 nM (final) of antisense miR-29a, 29b-1, 29c or scrambled antisense miR (Fidelity Systems, Gaithersburg, Md.).

WWOX mRNA = WWOX mRNA level by qRT-PCR; settings: A549 cells, 48 h after transfection
Experimental: as §3, §4

Substance	luciferase activity (DNMT3A complementary site in 3′UTR of firefly luciferase) (DNMT3A 3′UTR)	luciferase activity (DNMT3B complementary site in 3′UTR of firefly luciferase) (DNMT3B 3′UTR)	increase of FHIT expression (mRNA) (FHIT mRNA)	increase of WWOX mRNA level (WWOX mRNA)
miR-29c: microRNA of the miR-29 family, SEQ ID NO: 3; transfected as precursor miR-29c (Ambion) (UAGCACCAUUUGAAAUCGGU; listed as RNA, chemistry not given here)	significantly reduced	significantly reduced	~74%	–
miR-29a: microRNA of the miR-29 family, SEQ ID NO: 1; transfected as precursor miR-29a (Ambion) (UAGCACCAUCUGAAAUCGGUU; listed as RNA, chemistry not given here)	significantly reduced	significantly reduced	~65%	~40%
